Some test systems named below: SF-268; SW-620; RPMI-8226; HL-60; SK-MEL-2; 786-0; SK-OV-3; K562; EKVX; A549; M14; HCT-15; U-251; SF-539; SNB-19; NCI-H226.
Assay in all cases: NCI-60 cell line screen, 48 h

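Protocol summary: plate cells (96-well), add compound at 5 concentrations, incubate 48 h, interpolate endpoints linearly. GI50: concentration for 50% inhibition of growth.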 The source made the active and inactive calls. Cut-off read from the data, not from the text of the source: active = GI50 up to about 1.1 µM and inactive = higher.

In the case of `O=C1CC(O)(c2ccccc2)C(c2ccccc2)=C1c1ccccc1` (stereo not drawn), the GI50 was 37.7 µM (inactive) with SF-268; 94.4 µM (inactive) in the assay with SW-620; 20.7 µM (inactive) in the assay on RPMI-8226; 24.3 µM (inactive) in the assay on HL-60; 25.5 µM (inactive) in the assay on SK-MEL-2; 45 µM (inactive) with 786-0. Moreover, the GI50 is > 100 µM (inactive) in the assay with SK-OV-3; 30.5 µM (inactive) with K562; 40.9 µM (inactive) in the assay on EKVX; 39.1 µM (inactive) in the assay on A549; 35.4 µM (inactive) in the assay with M14; 32.3 µM in the assay on HCT-15.

Consider `C=C=C[P+](c1ccccc1)(c1ccccc1)c1ccccc1`, for which the GI50 in the assay with SF-268 was 15.3 µM (inactive); in the assay on RPMI-8226 it was 1.55 µM (inactive); with HL-60, 5.08 µM (inactive); in the assay on SK-MEL-2, 10.7 µM (inactive); in the assay on U-251, 3.56 µM (inactive); with 786-0 it was 5.02 µM (inactive). Moreover, the GI50 was 45.6 µM (inactive) with SK-OV-3; 14.8 µM (inactive) in the assay on SF-539; 3.4 µM (inactive) in the assay on K562; 26.8 µM (inactive) in the assay on A549; 6.05 µM (inactive) in the assay on M14; 11.5 µM with HCT-15.

Take `CN(C)[C@@H]1C(O)=C(C(N)=O)C(=O)[C@@]2(O)C(O)=C3C(=O)c4c(O)cccc4C[C@H]3C[C@@H]12`: the GI50 was 1.73 µM (inactive) with SF-268; 3.11 µM (inactive) in the assay with SW-620; 2.17 µM (inactive) in the assay with RPMI-8226; 2 µM (inactive) in the assay with HL-60; 1.83 µM (inactive) with SK-MEL-2; 2.17 µM (inactive) in the assay with U-251. The GI50 with 786-0 was 2.31 µM (inactive); with SK-OV-3, 1.9 µM (inactive); in the assay on SF-539 it was 2 µM (inactive); in the assay on K562 it was 2.51 µM (inactive); in the assay with SNB-19 it was 1.97 µM (inactive); with A549 it was 2.32 µM (inactive). The GI50 with M14 was 1.99 µM (inactive); in the assay with HCT-15, 4.8 µM.

On to `COc1cc2c(cc1OC)C(=O)Cc1ccc(OC)c(OC)c1CN(C)CC2`, for which the GI50 in the assay on SF-268, in the assay on SW-620, in the assay on RPMI-8226, in the assay on SK-MEL-2, in the assay with U-251 and with 786-0 was > 100 µM (inactive) each time. For the same compound, the GI50 in the assay on SK-OV-3, in the assay with SF-539, in the assay with K562, in the assay on SNB-19, with EKVX and in the assay with A549 was > 100 µM (inactive) throughout. In addition, the GI50 was > 100 µM (inactive) in the assay with M14, > 100 µM (inactive) in the assay with NCI-H226 and over 100 µM with HCT-15.

For `Cc1nc2ccncc2[nH]1`, the GI50 with SF-268, in the assay with SW-620, in the assay on HL-60, in the assay with SK-MEL-2, with U-251 and with 786-0 was > 100 µM (inactive) throughout. In addition, the GI50 with SF-539, in the assay with K562, in the assay with SNB-19, in the assay with EKVX, in the assay on A549 and in the assay with M14 was > 100 µM (inactive) in each case. Also, the GI50 in the assay with NCI-H226 was > 100 µM (inactive); in the assay with HCT-15 it was over 100 µM.

`CSc1nc2c(nc(C)c(=O)n2C2OCC(OC(C)=O)C(OC(C)=O)C2OC(C)=O)c(=O)[nH]1` (stereo not drawn): the GI50 with SF-268, in the assay on SW-620, in the assay on RPMI-8226, with HL-60, in the assay on SK-MEL-2 and in the assay on U-251 was > 100 µM (inactive) in each case. For the same compound, the GI50 in the assay on 786-0, in the assay with SK-OV-3, in the assay with K562, with SNB-19, in the assay on EKVX and in the assay with A549 was > 100 µM (inactive) each time. Also, the GI50 was > 100 µM (inactive) in the assay on M14 and over 100 µM with HCT-15.

For `O=C(c1ccc(NCN2C(=O)CCC2=O)cc1)c1ccc(NCN2C(=O)CCC2=O)cc1`, the GI50 in the assay on SF-268 was > 100 µM (inactive); in the assay with SW-620, 58.5 µM (inactive); with RPMI-8226, 20.4 µM (inactive); with HL-60, 18.9 µM (inactive); in the assay with SK-MEL-2, > 100 µM (inactive); in the assay with U-251 it was > 100 µM (inactive). For the same compound, the GI50 in the assay on 786-0 was > 100 µM (inactive); in the assay on SF-539, > 100 µM (inactive); in the assay on K562, 67.3 µM (inactive); in the assay with SNB-19, > 100 µM (inactive); with EKVX, > 100 µM (inactive); in the assay on A549, > 100 µM (inactive). For the same compound, the GI50 with M14 was > 100 µM (inactive); with HCT-15, 45.2 µM.

For `Cc1nc(C(N)=S)sc1C(=O)CC(=O)C(=O)Nc1ccccc1[N+](=O)[O-]`, the GI50 in the assay on SF-268, in the assay on SW-620, with RPMI-8226, in the assay on HL-60, with SK-MEL-2 and in the assay with U-251 was > 100 µM (inactive) throughout. Besides, the GI50 with 786-0, in the assay on SK-OV-3, with SF-539, with K562, with SNB-19 and with EKVX was > 100 µM (inactive) in each case. Besides, the GI50 in the assay on A549 is > 100 µM (inactive); with M14, > 100 µM (inactive); with HCT-15 it was over 100 µM.

Turning to `COc1ccc(C2=NN(c3ccccc3)C[N+](c3ccc(OC)cc3)=N2)cc1`, the GI50 in the assay with SF-268 is 35.9 µM (inactive); in the assay with SW-620, 24.5 µM (inactive); in the assay with RPMI-8226 it was 23.2 µM (inactive); in the assay on HL-60, 24 µM (inactive); with U-251, 20.4 µM (inactive); with 786-0, 49.9 µM (inactive). The GI50 with K562 is 19.2 µM (inactive); in the assay on SNB-19 it was 28.4 µM (inactive); in the assay with EKVX, 33.8 µM (inactive); in the assay on A549, 48 µM (inactive); with NCI-H226 it was 15.7 µM (inactive); in the assay on HCT-15, 43.7 µM.

Turning to `C/C=C(\NC(=O)C(CCCCN)NC(=O)C(C)NC(=O)C1CSC(C)C(NC(=O)C2CSCC(NC(=O)C(C)NC(=O)C(N)C(C)CC)C(=O)NC(CCCCN)C(=O)NC(Cc3ccccc3)C(=O)NC(CC(C)C)C(=O)N2)C(=O)N2CCCC2C(=O)NCC(=O)N1)C(=O)NCC(=O)NC1CSCC2NC(=O)C(Cc3ccc(O)cc3)NC(=O)C(CSC=CNC2=O)NC(=O)C(CC(N)=O)NC(=O)C(Cc2ccccc2)NC1=O` (stereo not drawn), the GI50 with SF-268 was 33.4 µM (inactive); in the assay with SW-620 it was > 100 µM (inactive); with HL-60, > 100 µM (inactive); in the assay with SK-MEL-2, > 100 µM (inactive); with U-251, > 100 µM (inactive); in the assay with 786-0 it was 35.6 µM (inactive). In addition, the GI50 was > 100 µM (inactive) with SF-539; > 100 µM (inactive) in the assay on K562; > 100 µM (inactive) in the assay on SNB-19; 52.2 µM (inactive) in the assay with EKVX; > 100 µM (inactive) in the assay on A549; > 100 µM (inactive) with M14. In the assay on HCT-15, this compound had a GI50 of over 100 µM.

Regarding `COc1ccc(/C(=N/NC(N)=O)C2(O)C(=O)Nc3ccc([N+](=O)[O-])cc32)cc1` (stereo not drawn), the GI50 in the assay with SF-268 is 18.5 µM (inactive); in the assay with SW-620, 22.8 µM (inactive); with RPMI-8226, 25.6 µM (inactive); in the assay with SK-MEL-2, 21.6 µM (inactive); with U-251, > 10 µM (inactive); with 786-0, 15.7 µM (inactive). The GI50 was > 100 µM (inactive) in the assay on SK-OV-3; 15.7 µM (inactive) in the assay with SF-539; 22 µM (inactive) in the assay on K562; > 10 µM (inactive) in the assay with SNB-19; > 100 µM (inactive) in the assay with EKVX; 55.6 µM (inactive) in the assay on A549. The values for the GI50 in the assay with M14, in the assay on NCI-H226 and with HCT-15 were 15.3 µM (inactive), 45.7 µM (inactive) and 20.7 µM, respectively.

As to `COC1C(CN[N+](=O)CC2OC3OC(C)(C)OC3C2OC)OC2OC(C)(C)OC21` (stereo not drawn), the GI50 in the assay with SF-268, in the assay with SW-620, in the assay with HL-60, in the assay with SK-MEL-2, in the assay on U-251 and with 786-0 was > 100 µM (inactive) throughout. The GI50 in the assay on SK-OV-3 is > 100 µM (inactive); in the assay with SF-539, > 100 µM (inactive); with K562 it was > 10 µM (inactive); in the assay with SNB-19, > 100 µM (inactive); in the assay on EKVX, > 100 µM (inactive); with A549, > 100 µM (inactive). In addition, the figures for the GI50 in the assay with M14, in the assay on NCI-H226 and in the assay on HCT-15 were > 100 µM (inactive), > 100 µM (inactive) and over 100 µM, respectively.

As for `CCOC(=O)Cn1c(=O)n(C)c(=O)c2[nH]cnc21`, the GI50 in the assay on SF-268, in the assay on SW-620, in the assay with RPMI-8226, in the assay on SK-MEL-2, in the assay on U-251 and with 786-0 was > 100 µM (inactive) in each case. Moreover, the GI50 in the assay with SK-OV-3, with SF-539, in the assay on K562, with SNB-19, in the assay on EKVX and with A549 was > 100 µM (inactive) each time. Also, the GI50 in the assay on M14 was > 100 µM (inactive); in the assay with HCT-15, over 100 µM.

In the case of `Brc1ccc(C[N+]23CN4CN(CN(C4)C2)C3)cc1`, the GI50 is 40.2 µM (inactive) in the assay with SF-268; 22.8 µM (inactive) in the assay with SW-620; 20.4 µM (inactive) with RPMI-8226; 10.4 µM (inactive) with HL-60; 69.3 µM (inactive) with U-251; 30.6 µM (inactive) with 786-0. The GI50 was > 100 µM (inactive) with SK-OV-3; 40.3 µM (inactive) with SF-539; 25.4 µM (inactive) with K562; > 100 µM (inactive) in the assay on SNB-19; > 100 µM (inactive) in the assay with EKVX; 40.4 µM (inactive) in the assay with A549. The results for the GI50 in the assay on M14 and with HCT-15 were 16.9 µM (inactive) and 24.2 µM, respectively.

The values above are taken from ChEMBL document CHEMBL1201862, “PubChem BioAssay data set” (2004).
